# Test results taken from patent publication US8221762B2, “Naturally processed measles virus peptides from class II HLA molecules” (priority 2004, dated 2012).
# Legend:
# [1] = test system: PBMC from subjects previously immunized with MMR-II vaccine; experiment: T cell proliferation assay ([3H]-thymidine, 3 days, SI cut point 3.0), Example 1; assay type: cell-based, human
# Text: Study participants included ninety-five healthy residents of Olmsted County, Minn., aged 11 to 18 years. […] Mononuclear leukocytes were isolated by Ficoll-Hypaque (Amersham) density gradient centrifugation.
# For descriptive analyses, we used medians and ranges for continuous variables and frequencies for categorical variables. We compared cpm for MV-stimulated, MV-P1-stimulated and MV-P2-stimulated cells with unstimulated cells using Wilcoxon signed rank tests. Associations between the continuously distributed stimulation indices for MV-P1, MV-P2 peptides, and MV were determined using Spearman rank correlation coefficients. Stimulation indices were subsequently dichotomized into positive or negative using a cut point of 3.0. We then compared MV positivity with MV-P1 and MV-P2 positivity using estimates of sensitivity.
# [2] = test system: PBMC of subjects previously immunized with MMR-II vaccine; experiment: T cell proliferation assay ([3H]-thymidine, 4 days, SI>2 positive), Example 3; conditions: for subjects with stimulation index greater than 2 (positive lymphoproliferative response) / stimulation index, median / stimulation index, range: 131 subjects (MV-P2 130, MV-F 43); for stimulation index, median / stimulation index, range: peptides 20 μg/ml, MV 50 pfu/ml, 4 days
# Procedure: Briefly, study participants were enrolled as part of a larger stratified random sample study to assess associations between HLA genes and immune response to measles-mumps-rubella-II (MMR-II) vaccine in healthy, school-age children and young adults (ages 12 to 18 years). To evaluate the cellular responses to measles peptides, 131 subjects were used. In addition, a random subset of 43 individuals was tested for reactivity to a control measles fusion (F) peptide. All enrolled subjects had been previously immunized with two doses of MMR-II vaccine (Merck Research, West Point, Pa.) containing the attenuated Edmonston strain of MV. All but four of these participants were Caucasian and all subjects resided in a geographic area where no wild-type MV had circulated in the community during the subjects' lifetimes.
# In brief, peripheral blood mononuclear cells (PBMC) were separated from heparinized blood by Ficoll-Hypaque (Sigma, St. Louis, Mo.) density gradient centrifugation and washed in RPMI 1640 medium (Celox Laboratories, Inc., St. Paul, Minn.) supplemented with 2 mM L-glutamine, 100 μg/ml streptomycin, 100 U/ml penicillin and 8% fetal calf serum (Life Technologies, Gaithersburg, Md.). Measles virus, MV-P1, MV-P2, and MV-F specific T cell responses were measures by proliferation of PBMC (2×10^5) incubated in RPMI-1640 medium, supplemented with 5% autologous sera, with live attenuated MV (50 pfu/ml, positive control) or synthetic peptides (20 μg/ml) compared to unstimulated cell control wells. Phytohemagglutinin (PHA, 5 μg/ml) was used to assess cell vitality. Only assays in which PBMC responded to PHA were accepted. T lymphocyte proliferation was measured after 4 days by [^3H]-tritiated thymidine uptake. Cells were then harvested onto glass fiber filters, using a 96-well harvesting system (Skatron Instruments, Norway). The amount of incorporated radioactivity was determined by a liquid scintillation counter (Packard Instrument Company, Boston, Mass.). We used six replicates of counts per minute (cpm) values for unstimulated cells, and three replicates each for T cells stimulated with peptides and live measles vaccine. For each subject, median cpm were calculated for unstimulated cells, as well as for cells stimulated with MV-P1, MV-P2, MV-F and measles. Results were then expressed as antigen-specific stimulation indices (SI), defined as the ratio of the median cpm of antigen-stimulated wells to the median cpm of unstimulated control wells. […] SI>2 was arbitrarily selected prior to the study as an indication of the presence of reactive peptide specific memory T cells, and SI<2 as an indicator of the lack of memory T lymphocytes to measles-derived peptides (Pauksen, et al., Bone Marrow Transplant 20:317-323, 1997).
# Three outcomes were of primary interest: T cell proliferation (as measured by stimulation indices) induced separately by live MV, the MV-P1 peptide, and the MV-P2 peptide variant. Data were descriptively summarized using frequencies and percentages for all categorical variables, and medians and ranges for all continuous variables.
# [3] = test system: PBMC of subjects previously immunized with MMR-II vaccine; experiment: IFN-γ supernatant cytokine response (ELISA) to measles virus and synthetic measles peptides; assay type: cell-based, human; conditions: for Median secretion value IFN-γ: stimulated minus control cells
# Procedure: (§1) To evaluate the immunogenicity of measles-derived peptides, 281 of these subjects (age 12 to 18 years) were studied.
# (§2) Cryopreserved PBMC were used to measure cytokine responses to measles-derived peptides. We thawed cryopreserved PBMC at a concentration of 1×10^7 cells/mL using standard protocol. The vials were rapidly thawed in a 37° C. water bath and then washed twice with 10× volume of complete RPMI 1640 media supplemented with 10% FCS at 700 rpm for 5 minutes. The final cell pellet was resuspended in complete RPMI media containing penicillin-streptomycin (100 U/mL) and supplemented with 5% normal human AB sera (Ervin Sci., Santa Ana, Calif.). For IFN-γ determination, thawed PBMC were cultured at a concentration of 2×10^5 in RPMI containing 5% normal human AB sera with or without measles peptides (10 μg/well) and MV (positive control) at a moi of 0.5 for 6 days. For IL-4 determination in cell culture supernatants, we cultured thawed PBMC at a concentration of 4×10^5 in RPMI media, supplemented with 5% normal human AB sera. Cells were cultured in the presence of 2 μg/mL of IL-4 receptor antibody (R&D Systems, Minneapolis, Minn.) (Ekerfelt, et al., J. Immunol. Methods 260:55-67, 2002) with or without synthetic measles-derived peptides (10 μg/well) and MV (positive control) at a moi of 0.1 for 6 days. Cell culture supernatants were collected in a volume of 150 μl/well for both IFN-γ and IL-4 and were frozen at […] until assayed. The culture supernatants were assayed using a standard ELISA protocol (OptiEtA Human IFN-γ and IL-4, PharMingen, San Diego, Calif.) at a dilution of 1:1 in PBS containing 10% FCS. ELISA plates (Immulon-4, DYNEX Technologies Inc, Chantilly, Va.) were coated with capture IFN-γ or IL-4 mAb and incubated overnight at 4° C. The antibody-coated plates were incubated with diluted supernatant samples for 2 hours at room temperature followed by incubation with biotinylated mouse anti-human IFN-γor IL-4 conjugated to avidin-horseradish peroxidase for 1 hour at room temperature. The absorbance of the product was read using a microplate reader (Molecular Devices, Sunnyvale, Calif.) at 450 nm. The IFN-γ and IL-4 concentration of test samples was calculated by reference to the standard curve. Unstimulated and MV-stimulated secretion measurements for IFN-γ were performed in triplicate, while all other secretion measurements for both IFN-γ and IL-4 were performed in duplicate. Individual-specific values were then summarized by taking means of the duplicate or triplicate values. Mean background levels of IFN-γ and IL-4 cytokine production in cultures not stimulated with measles peptides or MV was subtracted from the mean antigen-induced responses to produce “corrected” secretion values. Negative corrected values indicate that the unstimulated secretion levels were, on average, higher than the stimulated secretion levels.
# (§3) Two criteria were established to define positive responses for secreted IFN-γ and IL-4 cytokines using ELISA.
# [4] = test system: PBMC of subjects previously immunized with MMR-II vaccine; experiment: IL-4 supernatant cytokine response (ELISA) to measles virus and synthetic measles peptides; assay type: cell-based, human; conditions: for Median secretion value IL-4: stimulated minus control cells
# Procedure: as §1, §2, §3
# [5] = 95 subjects, peptides 20 μg/ml, MV 50 PFU/well
# [6] = 281 subjects, stimulated cells minus unstimulated cells
compound,measurement,setting,value
CC[C@H](C)[C@H](NC(=O)[C@H](CCC(=O)O)NC(=O)CNC(=O)CNC(=O)[C@H](CCC(=O)O)NC(=O)[C@H](C)NC(=O)[C@@H](NC(=O)[C@H](CCC(=O)O)NC(=O)[C@@H](NC(=O)[C@H](CC(=O)O)NC(=O)[C@H](CO)NC(=O)[C@H](C)N)C(C)C)[C@@H](C)O)C(=O)N[C@@H](Cc1c[nH]cn1)C(=O)N[C@@H](CCCCN)C(=O)N[C@@H](CC(C)C)C(=O)N[C@@H](CC(C)C)C(=O)N[C@@H](CCCNC(=N)N)C(=O)N[C@@H](CC(C)C)C(=O)N[C@@H](CCC(N)=O)C(=O)O [MV-P2],subjects with stimulation index greater than 3.0 (recognized),[1]; 95 subjects,5%
same,"stimulation index, median",[1]; [5],1.2
same,"stimulation index, range",[1]; [5],0.5-16.2
same,"median cpm value, lymphoproliferative assay","[1]; 95 subjects, peptides 20 μg/ml, live attenuated MV 50 PFU/well, 3 days",359 cpm
same,subjects with stimulation index greater than 2 (positive lymphoproliferative response),[2],17%
same,"stimulation index, median",[2],1.2
same,"stimulation index, range",[2],0.4-16.2
same,MV-P1 responders who also responded to the peptide,[2]; among the 52 subjects who responded to the MV-P1 peptide,23%
MV-F: randomly chosen 14 amino acid control peptide of the MV F protein (PLRHQATTASSTKP) [reference compound],proliferation in immunized healthy subjects,"[1]; irrelevant control peptide, data not shown",little or no proliferation
same,subjects with stimulation index greater than 2 (positive lymphoproliferative response),[2],11%
same,"stimulation index, median",[2],1
same,"stimulation index, range",[2],0-3
SAGKVSSTLASELG [MV-N],IFN-γ % Response (>20 pg/mL),"[3]; 281 subjects, peptides 10 μg/well, MV moi 0.5, 6 days",15.3%
same,IFN-γ Median level,[3]; [6],1.9 pg/mL
same,Median secretion value IFN-γ,[3]; All other HLA-DRB1 alleles,4.1 pg/mL
same,Median secretion value IFN-γ,[3]; HLA-DRB1 allele *0101,-1.8 pg/mL
same,Median secretion value IFN-γ,[3]; HLA-DRB1 allele *0102,7.6 pg/mL
same,Median secretion value IFN-γ,[3]; HLA-DRB1 allele *0103,2.4 pg/mL
same,Median secretion value IFN-γ,[3]; HLA-DRB1 allele *0301,1.8 pg/mL
same,Median secretion value IFN-γ,[3]; HLA-DRB1 allele *0401,-0.7 pg/mL
same,Median secretion value IFN-γ,[3]; HLA-DRB1 allele *0402,10.6 pg/mL
same,Median secretion value IFN-γ,[3]; HLA-DRB1 allele *0404,2.8 pg/mL
same,Median secretion value IFN-γ,[3]; HLA-DRB1 allele *0407,8.4 pg/mL
same,Median secretion value IFN-γ,[3]; HLA-DRB1 allele *0701,-1.1 pg/mL
same,Median secretion value IFN-γ,[3]; HLA-DRB1 allele *0801,4.1 pg/mL
same,Median secretion value IFN-γ,[3]; HLA-DRB1 allele *0901,3.1 pg/mL
same,Median secretion value IFN-γ,[3]; HLA-DRB1 allele *1001,-1.8 pg/mL
same,Median secretion value IFN-γ,[3]; HLA-DRB1 allele *1101,-4.4 pg/mL
same,Median secretion value IFN-γ,[3]; HLA-DRB1 allele *1103,3.0 pg/mL
same,Median secretion value IFN-γ,[3]; HLA-DRB1 allele *1104,3.1 pg/mL
same,Median secretion value IFN-γ,[3]; HLA-DRB1 allele *1201,-4.5 pg/mL
same,Median secretion value IFN-γ,[3]; HLA-DRB1 allele *1301,2.2 pg/mL
same,Median secretion value IFN-γ,[3]; HLA-DRB1 allele *1302,-1.9 pg/mL
same,Median secretion value IFN-γ,[3]; HLA-DRB1 allele *1303,13.1 pg/mL
same,Median secretion value IFN-γ,[3]; HLA-DRB1 allele *1401,0.2 pg/mL
same,Median secretion value IFN-γ,[3]; HLA-DRB1 allele *1501,4.1 pg/mL
same,Median secretion value IFN-γ,[3]; HLA-DRB1 allele *03011,9.1 pg/mL
same,Median secretion value IFN-γ,[3]; Overall (281),1.9 pg/mL
same,MV-P IFN-γ responders who also produced IFN-γ to the peptide,[3]; among the 157 subjects who responded to the MV-P peptide,21%
same,MV IFN-γ responders who also produced IFN-γ to the peptide,[3]; among the 185 subjects who responded to MV,21.1%
same,IL-4 % Response (>10 pg/mL),"[4]; 281 subjects, peptides 10 μg/well, MV moi 0.1, 6 days",23.1%
same,IL-4 Median level,[4]; [6],2.8 pg/mL
same,Median secretion value IL-4,[4]; All other HLA-DRB1 alleles,-0.5 pg/mL
same,Median secretion value IL-4,[4]; HLA-DRB1 allele *0101,4.3 pg/mL
same,Median secretion value IL-4,[4]; HLA-DRB1 allele *0102,4.6 pg/mL
same,Median secretion value IL-4,[4]; HLA-DRB1 allele *0103,1.3 pg/mL
same,Median secretion value IL-4,[4]; HLA-DRB1 allele *0301,2.8 pg/mL
same,Median secretion value IL-4,[4]; HLA-DRB1 allele *0401,4.3 pg/mL
same,Median secretion value IL-4,[4]; HLA-DRB1 allele *0402,-1.0 pg/mL
same,Median secretion value IL-4,[4]; HLA-DRB1 allele *0404,0.0 pg/mL
same,Median secretion value IL-4,[4]; HLA-DRB1 allele *0407,4.6 pg/mL
same,Median secretion value IL-4,[4]; HLA-DRB1 allele *0701,1.7 pg/mL
same,Median secretion value IL-4,[4]; HLA-DRB1 allele *0801,1.7 pg/mL
same,Median secretion value IL-4,[4]; HLA-DRB1 allele *0901,-1.6 pg/mL
same,Median secretion value IL-4,[4]; HLA-DRB1 allele *1001,2.1 pg/mL
same,Median secretion value IL-4,[4]; HLA-DRB1 allele *1101,4.4 pg/mL
same,Median secretion value IL-4,[4]; HLA-DRB1 allele *1103,15.5 pg/mL
same,Median secretion value IL-4,[4]; HLA-DRB1 allele *1104,4.4 pg/mL
same,Median secretion value IL-4,[4]; HLA-DRB1 allele *1201,5.4 pg/mL
same,Median secretion value IL-4,[4]; HLA-DRB1 allele *1301,3.6 pg/mL
same,Median secretion value IL-4,[4]; HLA-DRB1 allele *1302,2.2 pg/mL
same,Median secretion value IL-4,[4]; HLA-DRB1 allele *1303,-12.9 pg/mL
same,Median secretion value IL-4,[4]; HLA-DRB1 allele *1401,3.7 pg/mL
same,Median secretion value IL-4,[4]; HLA-DRB1 allele *1501,3.2 pg/mL
same,Median secretion value IL-4,[4]; HLA-DRB1 allele *03011,1.7 pg/mL
same,Median secretion value IL-4,[4]; Overall (281),2.8 pg/mL
same,MV-P IL-4 responders in whom peptide-specific IL-4 responses were also detected,[4]; among the 54 subjects who responded to the MV-P peptide,half
same,MV IL-4 responders who also responded to the peptide,[4]; among the 143 subjects with IL-4 production from MV-stimulated PBMC,28.7%
